Source: patent US8551470B2, “Use of substance P for mobilization of Mesenchymal stem cells or proliferation of Mesenchymal stem cells and for wound healing or facilitating wound healing” (Korea Institute of Radiological & Medical Sciences, priority 2004, dated 2013)

Tests used:
[1] = tested on: MMP-9 and MMP-2; test: Gelatin zymography of MSC culture supernatants; assay type: cell-based; details: culture medium of human MSCs on 3-D collagen gel, Substance-P 0-100 nM
Procedure: The culture supernatants were examined for gelatin zymography. The eletrophoresis was performed for the culture supernatant in which sample buffer without mercaptoethanol was added thereto, in 8% SDS-PAGE. The gel was renatured with 2.5% of Triton x-100 in order to remove the SDS, and then was incubated with a developing buffer (50 mM Tris-HCl, pH 7.2 100 mM NaCl, 20 mM CaCl2) at 37° C. overnight, and the gel was stained with Coomassie blue.

[2] = tested on: human MSCs; test: Viable cell count (triphan blue exclusion) of MSCs after Substance-P treatment; assay type: cell-based; details: 3 day
Excerpt: At 3 day after the treatment of Substance-P, the triphan blue excluded viable cells were counted.

[3] = tested on: VEGF and fibronectin; test: ELISA and Western blot analysis of VEGF and fibronectin in MSC culture supernatants; assay type: cell-based, human
Procedure: ELISA and Western blot analysis of fibronectin and VEGF, which are down stream genes of Tcf/β-catenin, were carried out.

[4] = tested on: β-catenin; test: Immunofluorescence staining of β-catenin localization in MSCs; assay type: cell-based; details: human MSCs, 100 nM
Procedure: In order to determine whether Substance-P affects the self-renewal capacity of human MSCs, β-catenin, which is the downstream effecter of the wnt signaling pathway, was examined. MSCs (Cambrex Bio Science) were plated in the density of 1×10^4/well, and incubated with MSCGM (Cambrex Bio Science). After adhesion of the cells, they were treated with Substance-P in each concentration, and incubated for 16 h and 48 h. The MSCs were fixed with 4% of paraformaldehyde and permeabilized with 0.3% of Triton X-100. After blocking nonspecific antigen with 20% normal goat serum which was diluted in phosphate buffer for 1 h, the coverslips were incubated with antibodies against β-catenin (BD Biosciencs; Cat #6010153, 1:100) for 90 min, and then with the FITC-conjugated secondary antibodies for 60 min(Vector). The cells were counterstained with DAPI, and examined by using confocal microscopy (Leica).

[5] = tested on: MMP-1, MMP-2, MMP-9, MT1-MMP, TIMP-1, TIMP-2; test: Immunoprecipitation of 35S-methionine labeled MMPs and TIMPs from MSCs; assay type: cell-based; details: human MSCs, Substance-P 0-100 nM, 35S-methionine labeling 16 h
Procedure: The effect of Substance-P on the biosynthesis of MMPs (matrix metalloproteinases) and their inhibitors was examined by immunoprecipitation of the culture medium and the cell lysates of MSCs which were labeled with ^35S-methionine. The MSCs were treated with Substance-P and labeled with 50 μCi/ml ^35S-methionine (Amersham) for 16 h. The cell lysate was prepared with a lysis buffer (1% of NP40, 10 mM Tris-HCl, pH 7.4, 150 mM NaCl, 1 mM EDTA, 2 mM PMSF). For immunoprecipitation of the secreted MMP-1, MMP-2, MMP-9, TIMP-1 and TIMP-2, the culture supernatants were incubated with their specific antibodies [anti-MMP-1 (chemicon; Cat #MAB3307, 1:100), anti-MMP-2 (Chemicon; Cat #MAB13405, 1:200), anti-MMP-9 (Calbiochem; Cat #444236, 1:100), anti-TIMP-1 (Calbiochem; Cat #IM32L, 1:250) and anti-TIMP-2 (Calbiochem; Cat #IM11L, 1:250)] for 2 h under constant rotation, and the antibodies were collected by protein-G sepharose-4B (Biorad). The pellet was washed three times with an immunoprecipitation buffer ([…], 50 mM Tris-HCl pH 7.4, 0.2% SDS and 0.5% Nadeoxycholate), once with a high salt buffer (10 mM Tris-HCl, pH 7.4, 0.5 M NaCl), and once with a low salt buffer (10 mM Tris-HCl, pH 7.4). After SDS-PAGE, the gel was soaked in 2 M sodium salicylate, dried, and exposed to the X-ray film for 2 weeks. […]

[6] = tested on: cornea wound; test: Corneal alkali burn rabbit model with intravenous injection of Substance-P; assay type: in vivo
Excerpt: New Zealand white rabbits weighing 2-3 kg were purchased from Samtako BioKorea. All these animal experiments were approved by Ethical Committee, Korea Institute of Radiological and Medical Sciences, and Chung-Ang University, and conducted in accordance with the ARVO Statement for the Use of Animal in Ophthalmic and Vision Research. For the alkali burn, the rabbit eyes were placed in contact with a 6 mm piece of circular Whatman filter paper soaked in 1N NaOH for 30 seconds. At 1, 3, 5, 7, 10 and 14 day after the alkali burn, rabbit eyes and whole blood were isolated.
Thus, it was examined whether or not Substance-P only can stimulate corneal wound healing. To estimate the effect of Substance-P intravenous injection on acceleration of the wound healing, Substance-P at dosage 6.5 ug/kg was intravenously injected firstly immediately after the injury, and then secondly on 2nd day after the wound. At day 7 after the intravenous injection, cornea recovery was estimated by naked eyes with taking digital picture. […] The intravenous injection of Substance-P strongly expedited the cornea healing as shown by clearance of corneal opaqueness and disappearance of hemorrhagic area, compared with the non-injected control rabbit.
To observe the wound healing degree in the histological level, rabbit eyes were isolated and fixed, and then, H&E staining and immunostaining for CD29 were carried out.

[7] = tested on: human MSCs; test: MSC migration and collagen degradation on 3-D collagen gel; assay type: cell-based; details: human MSCs on 3-D collagen gel, Substance-P in bottom dishes (0-100 nM), 72 h
Excerpt: In order to determine the mechanism of Substance-P in the mobilization of MSCs, which are strongly attached onto the endosteal surface of bone marrow, Substance-P was first examined to determine whether it stimulates migration of human MSCs cultured on top of the 3-D collagen gel. The type I collagen gel matrix was made within a 12 mm millicell membrane (milipore: 12-μm pore size) according to the manufacturer's specifications (Nitta gelatin, Japan) and coated overnight with type IV collagen (Nitta). The MSCs were plated on top of the collagen gel, and the outer chamber was filled with Substance-P-containing MSCGM (Cambrex Bio Science). Clearance of the collagen gel was monitored by using the phase contrast microscopy (Olympus). At 72 h, the millicell insert and outer dishes were fixed and stained with hematoxylin, and then the culture supernatants were stored for gelatin zymography.

[8] = Substance-P 6.5 ug/kg i.v. twice, vs non-injected

In the case of Substance-P, the “MMP-9 and MMP-2 activities (gelatin zymography)” value [1] is reported as “strong induction of MMP-9 and MMP-2 activities”, the “number of viable cells compared with the control group” value ([2]; 1 nM Substance-P) is reported as 1.7 times and the “number of viable cells compared with the control group” value ([2]; 10 nM Substance-P) is reported as 2.1 times. For the same substance, the “number of viable cells compared with the control group” value ([2]; 100 nM Substance-P) was 2.2 times, the “fibronectin induction (Western blot)” value ([3]; culture supernatant of Substance-P treated human MSCs) was “induced” and the “VEGF induction (ELISA)” value ([3]; culture supernatants of Substance-P treated human MSCs) was “induced”. For the same substance, the “nuclear localization of β-catenin” value ([4]; 16 h after Substance-P treatment) was “only a small number of MSCs at 100 nM showed nuclear localization of β-catenin”, the “nuclear translocation of β-catenin” value ([4]; 48 h after Substance-P treatment) was “all the MSCs showed nuclear translocation of β-catenin” and the “biosynthesis of MMP-1, MMP-2, MMP-9, and MT1-MMP” value [5] was “stimulated in a dose dependent manner”. The “biosynthesis of inhibitors TIMP-1 and TIMP-2” value [5] was “inhibited”, the “corneal regeneration (naked eye, digital picture)” value ([6]; Substance-P 6.5 ug/kg i.v. immediately after injury and on 2nd day, day 7, vs non-injected control) was “much faster” and the “CD29 immunostaining of cornea” value [6, 8] was “CD 29+cells of small and spindle shape inside of collagen fibers”. For the same substance, the “wound healing degree in histology (H&E staining)” value [6, 8] was “full thickness coverage of epithelium, well organized vasculature, and ordered array of dense collagen bundles”, the “healing rate (histological observation during the entire period)” value ([6]; Substance-P i.v. vs control group) was “speeded up the healing rate faster than the control group” and the “degradation of the collagen gel and MSC migration” value [7] was “stimulated degradation of the collagen gel and MSC migration in a dose dependent manner”.
